What was measured:
purple nutsedge = assay: Test B pre/postemergence purple nutsedge; type: in vivo, Cyperus rotundus
How it was run: (§1)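 Test chemicals in a non-phytotoxic solvent mixture with surfactant were sprayed preemergence onto planted seeds and postemergence onto plants 2 to 18 cm tall (1- to 4-leaf stage). After twelve to sixteen days in a greenhouse, injury was visually rated against untreated controls from 0 (no effect) to 10 (complete control).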

duck salad = assay: Test B flood test duck salad; type: in vivo, Heteranthera limosa
How it was run: (§2)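 Flood test on plants grown to the 2-leaf stage; treated plants kept in greenhouse twelve to sixteen days, then visually rated against controls on a 0 (no effect) to 10 (complete control) scale.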

crabgrass = assay: Test B pre/postemergence crabgrass; type: in vivo, Digitaria sanguinalis
How it was run: as §1

cocklebur = assay: Test B pre/postemergence cocklebur; type: in vivo, Xanthium strumarium
How it was run: as §1

smallflower flatsedge = assay: Test B flood test smallflower flatsedge; type: in vivo, Cyperus difformis
How it was run: as §2

bamyardgrass = assay: Test B flood test barnyardgrass; type: in vivo, Echinochloa crus-galli
How it was run: as §2

wheat = assay: Test B pre/postemergence wheat; type: in vivo, Triticum aestivum
How it was run: as §1

wild oat = assay: Test B pre/postemergence wild oat; type: in vivo, Avena fatua
How it was run: as §1

corn = assay: Test B pre/postemergence corn; type: in vivo, Zea mays
How it was run: as §1

rape = assay: Test B pre/postemergence rape; type: in vivo, Brassica napus
How it was run: as §1

giant foxtail = assay: Test B pre/postemergence giant foxtail; type: in vivo, Setaria faberii
How it was run: as §1

surinam grass = assay: Test B pre/postemergence surinam grass; type: in vivo, Brachiaria decumbens
How it was run: as §1

rice = assay: Test B flood test rice; type: in vivo, Oryza sativa
How it was run: as §2

bedstraw = assay: Test B pre/postemergence bedstraw; type: in vivo, Galium aparine; details: for Bedstraw plant response rating: scale of 0 to 10 where 0 is no effect and 10 is complete control
How it was run: as §1

morningglory = assay: Test B pre/postemergence morningglory; type: in vivo, Ipomoea hederacea
How it was run: as §1

blackgrass = assay: Test B pre/postemergence blackgrass; type: in vivo, Alopecurus myosuroides
How it was run: as §1

velvetleaf = assay: Test B pre/postemergence velvetleaf; type: in vivo, Abutilon theophrasti
How it was run: as §1

sugar beet = assay: Test B pre/postemergence sugar beet; type: in vivo, Beta vulgaris
How it was run: as §1

soybean = assay: Test B pre/postemergence soybean; type: in vivo, Glycine max
How it was run: as §1

pigweed = assay: Test B pre/postemergence pigweed; type: in vivo, Amaranthus retroflexus
How it was run: as §1

[1] = Preemergence, Rate 62 g/ha, scale of 0 to 10 where 0 is no effect and 10 is complete control
[2] = Rate 62 g/ha, Postemergence, scale 0 to 10 (0 no effect, 10 complete control)
[3] = Rate 125 g/ha, Postemergence, scale of 0 to 10 where 0 is no effect and 10 is complete control
[4] = Rate 250 g/ha, Postemergence, scale of 0 to 10 where 0 is no effect and 10 is complete control
[5] = Rate 62 g/ha, headed Pre-emergence (flood test species), scale 0 to 10 (0 no effect, 10 complete control)
[6] = Rate 125 g/ha, Pre-emergence, flood test species, scale 0 to 10 where 0 is no effect and 10 is complete control
[7] = Rate 250 g/ha, Pre-emergence, flood-test species, scale 0 to 10, 0 is no effect, 10 is complete control
[8] = Rate 500 g/ha, Pre-emergence, flood test species, scale 0 to 10 (0 no effect, 10 complete control)
[9] = Preemergence, Rate 250 g/ha, scale of 0 to 10 where 0 is no effect and 10 is complete control
[10] = Preemergence, Rate 500 g/ha, scale of 0 to 10 where 0 is no effect and 10 is complete control
[11] = Rate 500 g/ha, Postemergence, scale 0 to 10, 0 no effect, 10 complete control

CC(C)C(C)n1c(=O)on(C(=O)N(c2ccc(F)cc2)C(C)C)c1=O (stereo not shown) [Compound 316]
9: S. Flatsedge plant response rating (smallflower flatsedge; [7]) | S. Flatsedge plant response rating (smallflower flatsedge; [8]) | Barnyardgrass plant response rating (bamyardgrass; [7]) | Barnyardgrass plant response rating (bamyardgrass; [8]) | Giant foxtail plant response rating (giant foxtail; [1]) | B. signalgrass plant response rating (surinam grass; [9]) | B. signalgrass plant response rating (surinam grass; [10])
4: Wild oats plant response rating (wild oat; [1]) | Wild oats plant response rating (0 to 10 scale) (wild oat; Preemergence, Rate 125 g/ha) | Rape plant response rating (rape; [9]) | Rape plant response rating (rape; [10]) | Morningglory plant response rating (morningglory; [3]) | Plant response rating, Blackgrass (blackgrass; [4]) | Sugarbeets plant response rating (sugar beet; [10]) | Plant response rating, Soybean (soybean; [4]) | Redroot pigweed plant response rating (pigweed; [1])
7: B. signalgrass plant response rating (0 to 10 scale, 0 is no effect, 10 is complete control) (surinam grass; Preemergence, Rate 125 g/ha) | Blackgrass plant response rating (blackgrass; [11])
2: Cocklebur plant response rating (cocklebur; [10]) | Wheat plant response rating (wheat; [9]) | Wheat plant response rating (wheat; [10]) | Plant response rating, Wheat (wheat; [4]) | Plant response rating, Wild oats (wild oat; [4]) | Plant response rating, Giant foxtail (giant foxtail; [4]) | B. signalgrass plant response rating (surinam grass; [11]) | Bedstraw plant response rating (bedstraw; Rate 125 g/ha, Postemergence) | Velvetleaf plant response rating (0 to 10 scale) (velvetleaf; Preemergence, Rate 125 g/ha) | Plant response rating, Velvetleaf (velvetleaf; [4]) | Redroot pigweed plant response rating (pigweed; [2]) | Redroot pigweed plant response rating (pigweed; [3])
10: Crabgrass plant response rating (crabgrass; [10]) | Giant foxtail plant response rating (0 to 10 scale) (giant foxtail; Preemergence, Rate 125 g/ha) | Giant foxtail plant response rating (giant foxtail; [9]) | Giant foxtail plant response rating (giant foxtail; [10]) | Blackgrass plant response rating (0 to 10 scale) (blackgrass; Preemergence, Rate 125 g/ha) | Blackgrass plant response rating (blackgrass; [9]) | Blackgrass plant response rating (blackgrass; [10]) | Redroot pigweed plant response rating (pigweed; [9]) | Redroot pigweed plant response rating (pigweed; [10])
0: Nutsedge plant response rating (purple nutsedge; [1]) | Nutsedge plant response rating (0 to 10 scale) (purple nutsedge; Preemergence, Rate 125 g/ha) | Nutsedge plant response rating (purple nutsedge; [2]) | Nutsedge plant response rating (purple nutsedge; [3]) | Plant response rating, Nutsedge (purple nutsedge; [4]) | Ducksalad plant response rating (duck salad; [5]) | Ducksalad plant response rating (duck salad; [6]) | Ducksalad plant response rating (duck salad; [8]) | Crabgrass plant response rating (crabgrass; [2]) | Crabgrass plant response rating (crabgrass; [3]) | Plant response rating, Crabgrass (crabgrass; [4]) | Cocklebur plant response rating (cocklebur; [1]) | Cocklebur plant response rating (cocklebur; [9]) | Cocklebur plant response rating (cocklebur; [2]) | Cocklebur plant response rating (cocklebur; [3]) | Plant response rating, Cocklebur (cocklebur; [4]) | Cocklebur plant response rating (cocklebur; [11]) | S. Flatsedge plant response rating (smallflower flatsedge; [5]) | S. Flatsedge plant response rating (smallflower flatsedge; [6]) | Wheat plant response rating (wheat; [1]) | Wheat plant response rating (0 to 10 scale) (wheat; Preemergence, Rate 125 g/ha) | Wheat plant response rating (wheat; [2]) | Wheat plant response rating (wheat; [3]) | Wild oats plant response rating (wild oat; [2]) | Wild oats plant response rating (wild oat; [3]) | Corn plant response rating (corn; [1]) | Corn plant response rating (0 to 10 scale) (corn; Preemergence, Rate 125 g/ha) | Corn plant response rating (corn; [9]) | Corn plant response rating (corn; [2]) | Corn plant response rating (corn; [3]) | Plant response rating, Corn (corn; [4]) | Corn plant response rating (corn; [11]) | Rape plant response rating (rape; [1]) | Rape plant response rating (0 to 10 scale) (rape; Preemergence, Rate 125 g/ha) | Rape plant response rating (rape; [2]) | Rape plant response rating (rape; [3]) | Giant foxtail plant response rating (giant foxtail; [2]) | Giant foxtail plant response rating (giant foxtail; [3]) | B. signalgrass plant response rating (surinam grass; [2]) | B. signalgrass plant response rating (surinam grass; [3]) | Plant response rating, B. signalgrass (surinam grass; [4]) | Rice plant response rating (rice; [5]) | Rice plant response rating (rice; [6]) | Rice plant response rating (rice; [8]) | Bedstraw plant response rating (bedstraw; Preemergence, Rate 62 g/ha) | Bedstraw plant response rating (0 to 10 scale) (bedstraw; Preemergence, Rate 125 g/ha) | Morningglory plant response rating (morningglory; [1]) | Morningglory plant response rating (0 to 10 scale) (morningglory; Preemergence, Rate 125 g/ha) | Morningglory plant response rating (morningglory; [9]) | Morningglory plant response rating (morningglory; [10]) | Blackgrass plant response rating (blackgrass; [2]) | Velvetleaf plant response rating (velvetleaf; [1]) | Velvetleaf plant response rating (velvetleaf; [2]) | Velvetleaf plant response rating (velvetleaf; [3]) | Sugarbeets plant response rating (sugar beet; [1]) | Sugarbeets plant response rating (0 to 10 scale) (sugar beet; Preemergence, Rate 125 g/ha) | Sugarbeets plant response rating (sugar beet; [9]) | Sugarbeets plant response rating (sugar beet; [2]) | Sugarbeets plant response rating (sugar beet; [3]) | Plant response rating, Sugarbeets (sugar beet; [4]) | Soybean plant response rating (soybean; [1]) | Soybean plant response rating (0 to 10 scale) (soybean; Preemergence, Rate 125 g/ha) | Soybean plant response rating (soybean; [9]) | Soybean plant response rating (soybean; [10])
5: Corn plant response rating (corn; [10]) | Plant response rating, Morningglory (morningglory; [4])
8: Crabgrass plant response rating (0 to 10 scale) (crabgrass; Preemergence, Rate 125 g/ha) | Crabgrass plant response rating (crabgrass; [9]) | Blackgrass plant response rating (blackgrass; [1])
3: Ducksalad plant response rating (duck salad; [7]) | Barnyardgrass plant response rating (bamyardgrass; [5]) | Bedstraw plant response rating (bedstraw; Preemergence, Rate 250 g/ha) | Morningglory plant response rating (morningglory; [2]) | Velvetleaf plant response rating (velvetleaf; [9]) | Soybean plant response rating (soybean; [2]) | Soybean plant response rating (soybean; [3]) | Plant response rating, Redroot pigweed (pigweed; [4])
6: Crabgrass plant response rating (crabgrass; [1]) | Barnyardgrass plant response rating (bamyardgrass; [6]) | Wild oats plant response rating (wild oat; [9]) | Wild oats plant response rating (wild oat; [10]) | B. signalgrass plant response rating (surinam grass; [1]) | Bedstraw plant response rating (bedstraw; Preemergence, Rate 500 g/ha) | Velvetleaf plant response rating (velvetleaf; [10]) | Redroot pigweed plant response rating (0 to 10 scale) (pigweed; Preemergence, Rate 125 g/ha)
1: Plant response rating, Rape (rape; [4]) | Rice plant response rating (rice; [7]) | Blackgrass plant response rating (blackgrass; [3])

From US6737383B1, “Herbicidal oxadiazolidines” (priority 1999, dated 2004)
